Data reported in PubChem BioAssay (NCI).
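Each compound was tested at five concentrations against cells in 96-well plates for 48 hours. Here, GI50 denotes the concentration required for 50% inhibition of growth. At the TGI there is no net growth.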

Legend:
Assay in all cases: NCI tumour cell line growth inhibition, 48 h
NCI-H460 lung = tested on: NCI-H460 lung
EKVX NSCLC = tested on: EKVX NSCLC
786-0 renal = tested on: 786-0 renal
MOLT-4 leukemia = tested on: MOLT-4 leukemia
SK-OV-3 ovarian = tested on: SK-OV-3 ovarian
LOX IMVI melanoma = tested on: LOX IMVI melanoma
CAKI-1 renal = tested on: CAKI-1 renal
HCC-2998 colon = tested on: HCC-2998 colon
UACC-257 melanoma = tested on: UACC-257 melanoma
IGROV1 ovarian = tested on: IGROV1 ovarian
UACC-62 melanoma = tested on: UACC-62 melanoma
HT29 colon = tested on: HT29 colon
ACHN renal = tested on: ACHN renal
HS 578T breast = tested on: HS 578T breast
A498 renal = tested on: A498 renal
UO-31 renal = tested on: UO-31 renal
HCT-15 colon = tested on: HCT-15 colon
OVCAR-3 ovarian = tested on: OVCAR-3 ovarian
NCI/ADR-RES ovarian = tested on: NCI/ADR-RES ovarian
HOP-62 NSCLC = tested on: HOP-62 NSCLC
SN12C renal = tested on: SN12C renal
PC-3 prostate = tested on: PC-3 prostate
SF-539 CNS = tested on: SF-539 CNS
SW-620 colon = tested on: SW-620 colon
HCT-116 colon = tested on: HCT-116 colon
MDA-MB-435 = tested on: MDA-MB-435
SF-268 CNS = tested on: SF-268 CNS
HL-60(TB) leukemia = tested on: HL-60(TB) leukemia
MDA-MB-231 breast = tested on: MDA-MB-231 breast
SF-295 CNS = tested on: SF-295 CNS
DU-145 prostate = tested on: DU-145 prostate
NCI-H522 lung = tested on: NCI-H522 lung
MALME-3M melanoma = tested on: MALME-3M melanoma
TK-10 renal = tested on: TK-10 renal
KM12 colon = tested on: KM12 colon
SNB-75 CNS = tested on: SNB-75 CNS
RXF 393 renal = tested on: RXF 393 renal
SK-MEL-28 melanoma = tested on: SK-MEL-28 melanoma
U251 CNS = tested on: U251 CNS
HOP-92 NSCLC = tested on: HOP-92 NSCLC
SK-MEL-5 melanoma = tested on: SK-MEL-5 melanoma
SK-MEL-2 melanoma = tested on: SK-MEL-2 melanoma
CCRF-CEM leukemia = tested on: CCRF-CEM leukemia
A549 NSCLC = tested on: A549 NSCLC
OVCAR-5 ovarian = tested on: OVCAR-5 ovarian
OVCAR-4 ovarian = tested on: OVCAR-4 ovarian
M14 melanoma = tested on: M14 melanoma
T-47D breast = tested on: T-47D breast
SNB-19 CNS = tested on: SNB-19 CNS
BT-549 breast = tested on: BT-549 breast
SR leukemia = tested on: SR leukemia
K-562 leukemia = tested on: K-562 leukemia
COLO 205 colon = tested on: COLO 205 colon
OVCAR-8 ovarian = tested on: OVCAR-8 ovarian
NCI-H23 lung = tested on: NCI-H23 lung
MCF7 breast = tested on: MCF7 breast
RPMI-8226 leukemia = tested on: RPMI-8226 leukemia
NCI-H226 lung = tested on: NCI-H226 lung

## COc1ccc2c(c1)C(=O)c1c-2n(CCCN)c(=O)c2cc(OC)c(OC)cc12
NCI-H460 lung
  GI50: < 10 nM
  TGI: > 100000 nM
EKVX NSCLC
  GI50: 1830 nM
  TGI: 3670 nM
786-0 renal
  GI50: 146 nM
  TGI: 445 nM
MOLT-4 leukemia
  GI50: < 10 nM
SK-OV-3 ovarian
  GI50: 499 nM
  TGI: 10700 nM
LOX IMVI melanoma
  GI50: 52.9 nM
  TGI: 554 nM
CAKI-1 renal
  GI50: 61.9 nM
  TGI: 467 nM
HCC-2998 colon
  GI50: 109 nM
  TGI: 294 nM
UACC-257 melanoma
  GI50: 3580 nM
  TGI: 19300 nM
IGROV1 ovarian
  GI50: 154 nM
  TGI: 976 nM
UACC-62 melanoma
  GI50: 299 nM
  TGI: 1930 nM
HT29 colon
  GI50: 68.4 nM
  TGI: 214 nM
ACHN renal
  GI50: 39.7 nM
  TGI: 1140 nM
HS 578T breast
  GI50: 2200 nM
  TGI: 4810 nM
A498 renal
  GI50: 1890 nM
  TGI: 5590 nM
UO-31 renal
  GI50: 1190 nM
  TGI: 2720 nM
HCT-15 colon
  GI50: 229 nM
  TGI: 1180 nM
OVCAR-3 ovarian
  GI50: 203 nM
  TGI: 1380 nM
NCI/ADR-RES ovarian
  GI50: 405 nM
  TGI: 5400 nM
HOP-62 NSCLC
  GI50: < 10 nM
  TGI: 133 nM
SN12C renal
  GI50: 112 nM
  TGI: 1510 nM
PC-3 prostate
  GI50: 205 nM
  TGI: 1270 nM
SF-539 CNS
  GI50: 164 nM
  TGI: 1290 nM
SW-620 colon
  GI50: 55.4 nM
  TGI: 1980 nM
HCT-116 colon
  GI50: 28.7 nM
  TGI: 181 nM
MDA-MB-435
  GI50: 1330 nM
  TGI: 2860 nM
SF-268 CNS
  GI50: 515 nM
HL-60(TB) leukemia
  GI50: < 24.5 nM
MDA-MB-231 breast
  GI50: 570 nM
  TGI: 1860 nM
SF-295 CNS
  GI50: < 10 nM
  TGI: 1040 nM
DU-145 prostate
  GI50: < 10 nM
  TGI: 153 nM
NCI-H522 lung
  GI50: < 10 nM
  TGI: 1030 nM
MALME-3M melanoma
  GI50: 1140 nM
  TGI: 3000 nM
TK-10 renal
  GI50: 1450 nM
  TGI: 2990 nM
KM12 colon
  GI50: 169 nM
  TGI: 627 nM
SNB-75 CNS
  GI50: 1160 nM
  TGI: 2550 nM
RXF 393 renal
  GI50: 399 nM
  TGI: 1880 nM
SK-MEL-28 melanoma
  GI50: 8190 nM
  TGI: 29100 nM
U251 CNS
  GI50: 49.1 nM
  TGI: 1630 nM
HOP-92 NSCLC
  GI50: 424 nM
  TGI: 2340 nM
SK-MEL-5 melanoma
  GI50: 283 nM
  TGI: 1930 nM
SK-MEL-2 melanoma
  GI50: 2550 nM
CCRF-CEM leukemia
  GI50: < 10 nM
A549 NSCLC
  GI50: 26.7 nM
  TGI: 182 nM
OVCAR-5 ovarian
  GI50: 1590 nM
  TGI: 3010 nM

## COC(=O)c1ccc2c(c1)c1c(C)c3ccncc3c(C)c1n2C
NCI-H460 lung
  GI50: 296 nM
  TGI: 12600 nM
OVCAR-4 ovarian
  GI50: 396 nM
  TGI: 30800 nM
EKVX NSCLC
  GI50: 274 nM
  TGI: 36200 nM
786-0 renal
  GI50: 268 nM
  TGI: 18000 nM
MOLT-4 leukemia
  GI50: 99.2 nM
  TGI: 44700 nM
M14 melanoma
  GI50: 453 nM
  TGI: 36300 nM
SK-OV-3 ovarian
  GI50: 471 nM
  TGI: > 100000 nM
LOX IMVI melanoma
  GI50: 88.7 nM
  TGI: 10800 nM
T-47D breast
  GI50: 661 nM
  TGI: > 100000 nM
SNB-19 CNS
  GI50: 206 nM
  TGI: > 100000 nM
HCC-2998 colon
  GI50: 3860 nM
  TGI: > 100000 nM
IGROV1 ovarian
  GI50: 80.1 nM
  TGI: > 100000 nM
UACC-62 melanoma
  GI50: 191 nM
  TGI: 2630 nM
HT29 colon
  GI50: 133 nM
  TGI: > 100000 nM
ACHN renal
  GI50: 51.9 nM
  TGI: > 100000 nM
BT-549 breast
  GI50: 925 nM
  TGI: 36200 nM
HS 578T breast
  GI50: 561 nM
  TGI: > 100000 nM
A498 renal
  GI50: 583 nM
  TGI: 13700 nM
UO-31 renal
  GI50: 71.7 nM
  TGI: 77500 nM
HCT-15 colon
  GI50: 215 nM
  TGI: 21200 nM
OVCAR-3 ovarian
  GI50: 536 nM
  TGI: 47200 nM
SR leukemia
  GI50: 57.5 nM
  TGI: 3390 nM
K-562 leukemia
  GI50: 200 nM
  TGI: > 100000 nM
NCI/ADR-RES ovarian
  GI50: 411 nM
  TGI: 62700 nM
HOP-62 NSCLC
  GI50: 106 nM
  TGI: > 100000 nM
SN12C renal
  GI50: 214 nM
  TGI: > 100000 nM
COLO 205 colon
  GI50: 113 nM
  TGI: > 100000 nM
PC-3 prostate
  GI50: 300 nM
  TGI: > 100000 nM
OVCAR-8 ovarian
  GI50: 121 nM
  TGI: > 100000 nM
SF-539 CNS
  GI50: 332 nM
  TGI: 45100 nM
SW-620 colon
  GI50: 65.8 nM
  TGI: 58300 nM
HCT-116 colon
  GI50: 49.5 nM
  TGI: > 100000 nM
MDA-MB-435
  GI50: 437 nM
  TGI: 22900 nM
SF-268 CNS
  GI50: 114 nM
  TGI: > 100000 nM
HL-60(TB) leukemia
  GI50: 1130 nM
  TGI: 39400 nM
MDA-MB-231 breast
  GI50: 391 nM
  TGI: > 100000 nM
SF-295 CNS
  GI50: 64.7 nM
  TGI: 7480 nM
DU-145 prostate
  GI50: 313 nM
  TGI: > 100000 nM
NCI-H522 lung
  GI50: 538 nM
  TGI: 32000 nM
MALME-3M melanoma
  GI50: 201 nM
  TGI: 11200 nM
TK-10 renal
  GI50: 890 nM
  TGI: 70300 nM
NCI-H23 lung
  GI50: 304 nM
  TGI: 16100 nM
KM12 colon
  GI50: 262 nM
  TGI: > 100000 nM
SNB-75 CNS
  GI50: 104 nM
  TGI: 15900 nM
MCF7 breast
  GI50: 267 nM
  TGI: 1770 nM
RPMI-8226 leukemia
  GI50: 259 nM
  TGI: 25100 nM
SK-MEL-28 melanoma
  GI50: 441 nM
  TGI: 50100 nM
U251 CNS
  GI50: 322 nM
  TGI: > 100000 nM
HOP-92 NSCLC
  GI50: 378 nM
  TGI: > 100000 nM
SK-MEL-5 melanoma
  GI50: 232 nM
  TGI: 912 nM
SK-MEL-2 melanoma
  GI50: 750 nM
  TGI: 31600 nM
CCRF-CEM leukemia
  GI50: 518 nM
  TGI: > 100000 nM
A549 NSCLC
  GI50: 484 nM
  TGI: > 100000 nM
OVCAR-5 ovarian
  GI50: 718 nM
  TGI: > 100000 nM
NCI-H226 lung
  GI50: 352 nM
  TGI: 13200 nM
